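The compound was tested at five concentrations on cells cultured in 96-well plates, with a 48-hour exposure period. Abbreviation: GI50, concentration required for 50% inhibition of growth.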 Calls of active or inactive are those of the source. Cut-off read from the data, not from the text of the source: active = GI50 up to about 1.1 µM and inactive = higher.
Columns and labels:
Assay in all cases: inhibition of tumour cell growth, NCI panel, 48 h
OVCAR-5 = tested on: OVCAR-5
SF-268 = tested on: SF-268
DLD-1 = tested on: DLD-1
SF-295 = tested on: SF-295
RPMI-8226 = tested on: RPMI-8226
SNB-19 = tested on: SNB-19
A549 = tested on: A549
NCI-H23 = tested on: NCI-H23
OVCAR-4 = tested on: OVCAR-4
SK-MEL-28 = tested on: SK-MEL-28
K562 = tested on: K562
SN12C = tested on: SN12C
SK-MEL-5 = tested on: SK-MEL-5
UO-31 = tested on: UO-31
DMS-273 = tested on: DMS-273
NCI-H460 = tested on: NCI-H460
HCC 2998 = tested on: HCC 2998
DMS-114 = tested on: DMS-114
BT-549 = tested on: BT-549
DU-145 = tested on: DU-145

Measured: GI50

CC1=C(c2cc(C(=O)Nc3nccs3)nc(NC#N)n2)Sc2ccccc2N1
inactive: OVCAR-5 > 100 µM | SF-268 > 100 µM | DLD-1 > 100 µM | SF-295 > 100 µM | RPMI-8226 > 100 µM | SNB-19 > 100 µM | A549 > 100 µM | NCI-H23 > 100 µM | OVCAR-4 > 100 µM | SK-MEL-28 > 100 µM | K562 > 100 µM | SN12C > 100 µM | SK-MEL-5 > 100 µM | UO-31 > 100 µM | DMS-273 > 100 µM | NCI-H460 > 100 µM

COC(=O)CC(CC(=O)C(=O)OC)C(=O)OC (stereo not given)
inactive: OVCAR-5 > 100 µM | DLD-1 > 100 µM | SF-295 > 100 µM | RPMI-8226 > 100 µM | SNB-19 > 100 µM | A549 > 100 µM | NCI-H23 > 100 µM | SK-MEL-28 > 100 µM | K562 > 100 µM | SN12C > 100 µM | SK-MEL-5 > 100 µM | UO-31 > 100 µM | HCC 2998 > 100 µM | NCI-H460 > 100 µM

COC1OC(CBr)C(OC(=O)c2ccccc2)C(O)C1Br (stereo not given)
inactive: OVCAR-5 > 100 µM | SF-268 > 100 µM | DLD-1 > 100 µM | SF-295 > 100 µM | RPMI-8226 > 100 µM | SNB-19 > 100 µM | A549 > 100 µM | NCI-H23 > 100 µM | OVCAR-4 > 100 µM | SK-MEL-28 > 100 µM | K562 > 100 µM | SN12C > 100 µM | SK-MEL-5 > 100 µM | DMS-273 > 100 µM | HCC 2998 > 100 µM | NCI-H460 > 100 µM

CN(C(=N)c1ccccc1)c1ccccc1
inactive: DLD-1 > 100 µM | SF-295 > 100 µM | RPMI-8226 > 100 µM | SNB-19 > 100 µM | A549 > 100 µM | NCI-H23 > 100 µM | OVCAR-4 > 100 µM | SK-MEL-28 > 100 µM | K562 > 100 µM | SN12C > 100 µM | SK-MEL-5 > 100 µM | UO-31 > 100 µM | DMS-273 > 100 µM | HCC 2998 > 100 µM

Cc1ccc(-c2c(N)[n+]([O-])c3ccccc3[n+]2[O-])cc1
inactive: OVCAR-5 17.9 µM | SF-268 16.9 µM | DLD-1 13.1 µM | SF-295 20 µM | RPMI-8226 21.4 µM | SNB-19 12.7 µM | A549 23.3 µM | NCI-H23 5 µM | OVCAR-4 17.3 µM | SK-MEL-28 6.52 µM | K562 15 µM | SN12C 10.6 µM | SK-MEL-5 11.4 µM | UO-31 16.1 µM | DMS-273 13.4 µM | HCC 2998 15.8 µM | NCI-H460 18.7 µM

CC(=O)c1c(O)ccc2c1CC(CC=O)O2 (stereo not given)
inactive: OVCAR-5 > 100 µM | SF-268 88.5 µM | DLD-1 32.7 µM | SF-295 > 100 µM | DMS-114 20.1 µM | RPMI-8226 45.3 µM | SNB-19 > 100 µM | A549 > 100 µM | NCI-H23 53.6 µM | OVCAR-4 98.6 µM | SK-MEL-28 > 100 µM | K562 > 100 µM | SN12C 58.9 µM | SK-MEL-5 79.8 µM | UO-31 63.2 µM | HCC 2998 > 100 µM | NCI-H460 > 100 µM

C/C(=N\NC(=O)c1ccccc1O)c1c(O)cc(C)oc1=O
inactive: OVCAR-5 73.3 µM | SF-268 49.4 µM | DLD-1 49.8 µM | SF-295 51.4 µM | DMS-114 90.6 µM | RPMI-8226 50.4 µM | SNB-19 63.5 µM | A549 33 µM | NCI-H23 84.1 µM | OVCAR-4 71 µM | SK-MEL-28 > 100 µM | K562 72.6 µM | SN12C > 100 µM | SK-MEL-5 43.8 µM | UO-31 31.5 µM | HCC 2998 92 µM | NCI-H460 43.6 µM

Cc1cccc(C)c1N1C(=O)C(=O)C(c2nc3ccccc3s2)/C(=N/NC(=O)NN)C1=O (stereo not given)
inactive: SF-268 > 100 µM | DLD-1 > 100 µM | SF-295 > 100 µM | DMS-114 > 100 µM | SNB-19 > 100 µM | A549 > 100 µM | NCI-H23 > 100 µM | OVCAR-4 > 100 µM | SK-MEL-28 > 100 µM | SN12C > 100 µM | SK-MEL-5 > 100 µM | UO-31 > 100 µM | DMS-273 > 100 µM | HCC 2998 > 100 µM | NCI-H460 > 100 µM

Cn1c(=O)c2c3oc(=O)cc(O)c3c(=O)n3c4ccccc4n(c1=O)c23
inactive: OVCAR-5 52.5 µM | SF-268 47.6 µM | DLD-1 35.8 µM | SF-295 > 100 µM | RPMI-8226 24 µM | SNB-19 > 100 µM | A549 45.7 µM | NCI-H23 35.6 µM | OVCAR-4 36.5 µM | K562 20.3 µM | SN12C 34 µM | SK-MEL-5 28 µM | UO-31 28.8 µM | DMS-273 31.5 µM | HCC 2998 42.6 µM | NCI-H460 37.2 µM

O=NN1CCN=C1c1ccc([N+](=O)[O-])cc1
inactive: OVCAR-5 > 100 µM | SF-268 > 100 µM | DLD-1 > 100 µM | SF-295 > 100 µM | RPMI-8226 > 100 µM | SNB-19 > 100 µM | A549 > 100 µM | NCI-H23 > 100 µM | OVCAR-4 > 100 µM | SK-MEL-28 > 100 µM | K562 > 100 µM | SN12C > 100 µM | SK-MEL-5 > 100 µM | UO-31 66.2 µM | DMS-273 > 100 µM | HCC 2998 > 100 µM | NCI-H460 > 100 µM

C/C(=N\Nc1nc2ccccc2[nH]1)c1cccc[n+]1[O-]
inactive: OVCAR-5 8.91 µM | SF-268 > 100 µM | SF-295 3.48 µM | BT-549 > 100 µM | RPMI-8226 > 100 µM | SNB-19 > 100 µM | A549 > 100 µM | NCI-H23 > 100 µM | OVCAR-4 > 100 µM | DU-145 > 100 µM | SK-MEL-28 > 100 µM | K562 > 100 µM | SN12C > 100 µM | SK-MEL-5 > 100 µM | UO-31 64.6 µM | HCC 2998 6.55 µM | NCI-H460 49.2 µM

CCOC(=O)C1(c2ccccc2)CCC(=O)CC1
inactive: OVCAR-5 > 100 µM | SF-268 > 100 µM | DLD-1 > 100 µM | SF-295 > 100 µM | DMS-114 > 100 µM | SNB-19 > 100 µM | A549 > 100 µM | NCI-H23 > 100 µM | OVCAR-4 > 100 µM | SK-MEL-28 > 100 µM | K562 > 100 µM | SN12C > 100 µM | SK-MEL-5 > 100 µM | UO-31 > 100 µM | DMS-273 > 100 µM | HCC 2998 > 100 µM | NCI-H460 > 100 µM

COC(=O)C1=CC2C(=O)OC1C1C(=O)NC(=O)C21 (stereo not given)
inactive: SF-268 > 100 µM | DLD-1 > 100 µM | SF-295 > 100 µM | DMS-114 > 100 µM | RPMI-8226 > 100 µM | SNB-19 > 100 µM | A549 > 100 µM | NCI-H23 > 100 µM | OVCAR-4 60.4 µM | SK-MEL-28 > 100 µM | K562 > 100 µM | SN12C > 100 µM | SK-MEL-5 > 100 µM | UO-31 > 100 µM | DMS-273 > 100 µM | HCC 2998 > 100 µM | NCI-H460 > 100 µM

CCOC(=O)C(C(=O)OCC)=C1N[C@H](C(=O)OCC)CS1
inactive: OVCAR-5 > 100 µM | SF-268 > 100 µM | DLD-1 > 100 µM | SF-295 > 100 µM | RPMI-8226 > 100 µM | SNB-19 > 100 µM | A549 > 100 µM | NCI-H23 > 100 µM | OVCAR-4 > 100 µM | SK-MEL-28 > 100 µM | K562 > 100 µM | SN12C > 100 µM | SK-MEL-5 > 100 µM | UO-31 > 100 µM | HCC 2998 > 100 µM | NCI-H460 > 100 µM

O=C(NNC(=O)c1cc(/C=C/c2cccc([N+](=O)[O-])c2)nc(S)n1)Nc1ccc(Cl)cc1
inactive: OVCAR-5 > 100 µM | SF-268 > 100 µM | DLD-1 20.2 µM | SF-295 > 100 µM | DMS-114 30.8 µM | RPMI-8226 25.5 µM | A549 70 µM | NCI-H23 77.4 µM | SK-MEL-28 > 100 µM | K562 39.2 µM | SN12C > 100 µM | SK-MEL-5 86.5 µM | UO-31 91.2 µM | DMS-273 > 100 µM | HCC 2998 > 100 µM | NCI-H460 46.6 µM

COC(=O)C1=CC2OC13CC1CCC3(C2=O)C1(C)C (stereo not given)
inactive: OVCAR-5 19 µM | SF-268 10 µM | SF-295 19.6 µM | DMS-114 7.29 µM | RPMI-8226 15.1 µM | SNB-19 21.6 µM | A549 31.4 µM | NCI-H23 16 µM | OVCAR-4 10.9 µM | K562 11.2 µM | SN12C 12.7 µM | SK-MEL-5 15.8 µM | UO-31 5.89 µM | DMS-273 11.2 µM | HCC 2998 14.5 µM | NCI-H460 34.1 µM

O=[N+]([O-])C1C2C=CC(C2)[C@H]1c1ccccc1Cl (stereo not given in full)
inactive: OVCAR-5 16.5 µM | SF-268 > 100 µM | DLD-1 83.6 µM | SF-295 > 100 µM | RPMI-8226 > 69.8 µM | SNB-19 > 100 µM | A549 > 84.5 µM | NCI-H23 63.4 µM | OVCAR-4 > 10 µM | SK-MEL-28 > 68.7 µM | K562 59.4 µM | SN12C > 100 µM | SK-MEL-5 53.5 µM | UO-31 > 54 µM | DMS-273 > 100 µM | HCC 2998 > 100 µM | NCI-H460 > 100 µM

— ChEMBL document CHEMBL1201862, “PubChem BioAssay data set” (2004)
